Seven compounds from patent US20240209028A1, “CNP COMPOUNDS” (priority 2022, published 2024) can be followed below.

Starred links: 1 amine or outer side, 2 acyl side, 3 side chain; linkers in the order of their positions; H or OH if unused. Positions of bridges follow the written chain, without caps; N, C: chain ends. Residues, ends and D or L forms follow the SMILES beside them. *: point of attachment. C18 diacid = O=C(O)CCCCCCCCCCCCCCCCC(=O)*; γGlu = O=C(O)[C@H](CCC(=O)[*:2])N[*:1]; AEEA = NCCOCCOCC(=O)O

This experiment deals with T1, human natriuretic peptide receptor 2 (hNPR2) (Homo sapiens, UniProt P20594).
T1 construct: expressed in transfected cells; host or cells: HEK293 (ATCC CRL-1573), clone 35, co-transfected with pGloSensor-42F
T1 sequence (P20594 23-1047): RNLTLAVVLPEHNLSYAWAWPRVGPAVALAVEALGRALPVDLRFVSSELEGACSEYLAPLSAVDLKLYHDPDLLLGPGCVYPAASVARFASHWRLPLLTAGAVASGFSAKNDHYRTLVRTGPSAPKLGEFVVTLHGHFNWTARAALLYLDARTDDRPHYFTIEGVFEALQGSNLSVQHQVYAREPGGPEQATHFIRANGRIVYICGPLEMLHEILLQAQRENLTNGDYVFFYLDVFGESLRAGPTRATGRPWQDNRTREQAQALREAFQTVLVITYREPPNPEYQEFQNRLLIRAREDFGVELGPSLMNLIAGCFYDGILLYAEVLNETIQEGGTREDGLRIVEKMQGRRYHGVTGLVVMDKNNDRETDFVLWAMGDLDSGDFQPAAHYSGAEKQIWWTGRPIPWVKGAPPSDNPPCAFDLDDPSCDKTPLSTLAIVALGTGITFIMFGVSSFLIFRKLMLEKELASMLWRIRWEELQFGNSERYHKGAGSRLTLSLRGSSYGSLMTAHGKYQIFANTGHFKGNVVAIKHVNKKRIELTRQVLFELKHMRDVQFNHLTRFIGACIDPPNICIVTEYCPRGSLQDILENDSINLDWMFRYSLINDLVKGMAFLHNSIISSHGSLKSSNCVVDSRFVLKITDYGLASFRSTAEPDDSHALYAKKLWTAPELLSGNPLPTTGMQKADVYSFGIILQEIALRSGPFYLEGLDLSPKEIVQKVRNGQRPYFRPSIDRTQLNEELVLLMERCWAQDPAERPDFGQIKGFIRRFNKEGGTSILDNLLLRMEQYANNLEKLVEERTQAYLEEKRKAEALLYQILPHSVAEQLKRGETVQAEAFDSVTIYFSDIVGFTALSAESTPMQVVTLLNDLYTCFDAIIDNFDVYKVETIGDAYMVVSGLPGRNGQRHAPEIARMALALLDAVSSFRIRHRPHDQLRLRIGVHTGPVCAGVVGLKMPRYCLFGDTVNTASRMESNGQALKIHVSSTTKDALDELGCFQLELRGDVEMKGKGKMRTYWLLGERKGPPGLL
The experiment is described as follows: In vitro hNPR2 activity assay (cGMP GloSensor reporter, HEK293). Format: cell-based. The conditions noted are these: potency relative to CNP22 (0065). The method in brief: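 Potency is the EC50 from a four-parameter logistic fit, also expressed relative to the in-plate CNP22 control (×100), with at least two replicates. Compounds (ten concentrations, […], HSA-free diluent with 1% OVA, 0.01% Tween20) were incubated 30 min at 37 °C on HEK293 cells co-expressing hNPR2 and a GloSensor cGMP luciferase. Luminescence detected with Bright-Glo.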
Turning to `CC[C@H](C)[C@@H]1NC(=O)[C@H](CCCNC(=N)N)NC(=O)[C@H](CC(=O)O)NC(=O)[C@H](CC(C)C)NC(=O)[C@@H]2CCCN2C(=O)[C@H](CC(C)C)NC(=O)CNC(=O)[C@H](Cc2ccccc2)NC(=O)[C@@H](NC(=O)CNC(=O)[C@H](CCC(N)=O)NC(=O)[C@H](CO)NC(=O)[C@H](CO)NC(=O)CNC(=O)[C@H](Cc2c[nH]cn2)NC(=O)[C@H](CCCCN)NC(=O)[C@H](CCC(N)=O)NC(=O)[C@H](C)NC(=O)CNC(=O)[C@H](Cc2c[nH]cn2)NC(=O)[C@H](Cc2ccc(O)cc2)NC(=O)[C@H](CCCCN)NC(=O)[C@H](Cc2c[nH]cn2)NC(=O)[C@H](C)NC(=O)[C@H](CCC(N)=O)NC(=O)[C@@H]2CCCN2C(=O)[C@H](Cc2c[nH]cn2)NC(=O)[C@H](CCC(=O)O)NC(=O)[C@H](CCC(N)=O)NC(=O)COCCOCCNC(=O)COCCOCCNC(=O)CC[C@H](NC(=O)CC[C@H](NC(=O)CCCCCCCCCCCCCCCCC(=O)O)C(=O)O)C(=O)O)CSSC[C@@H](C(=O)O)NC(=O)CNC(=O)[C@H](CC(C)C)NC(=O)CNC(=O)[C@H](CO)NC(=O)[C@H](CC(C)C)NC(=O)[C@H](CO)NC(=O)CNC1=O` [compound 1383] ({C18 diacid-γGlu-γGlu-AEEA-AEEA}-QEHPQAHKYHGAQKHGSSQGCFGLPLDRIGSLSGLGC-OH; disulfide 21-37), the “hNPR2 0% HSA. [EC50% rel CNP]” value is 43.1%.
Then `CC[C@H](C)[C@@H]1NC(=O)[C@H](CCCNC(=N)N)NC(=O)[C@H](CC(=O)O)NC(=O)[C@H](CC(C)C)NC(=O)[C@@H]2CCCN2C(=O)[C@H](CC(C)C)NC(=O)CNC(=O)[C@H](Cc2ccccc2)NC(=O)[C@@H](NC(=O)CNC(=O)[C@H](CCCCN)NC(=O)[C@H](CO)NC(=O)[C@H](CC(C)C)NC(=O)CNC(=O)[C@H](CCCCN)NC(=O)[C@H](CCCCN)NC(=O)[C@H](CCC(N)=O)NC(=O)[C@H](C)NC(=O)CNC(=O)[C@H](CCC(=O)O)NC(=O)[C@H](Cc2ccc(O)cc2)NC(=O)[C@H](CCCCN)NC(=O)[C@H](CCCNC(=N)N)NC(=O)[C@H](C)NC(=O)CC[C@H](NC(=O)CC[C@H](NC(=O)CC[C@H](NC(=O)CC[C@H](NC(=O)CCCCCCCCCCCCCCCCC(=O)O)C(=O)O)C(=O)O)C(=O)O)C(=O)O)CSSC[C@@H](C(=O)O)NC(=O)CNC(=O)[C@H](CC(C)C)NC(=O)CNC(=O)[C@H](CO)NC(=O)[C@H](CC(C)C)NC(=O)[C@H](CO)NC(=O)CNC1=O` [compound 1385] ({C18 diacid-γGlu-γGlu-γGlu-γGlu}-ARKYEGAQKKGLSKGCFGLPLDRIGSLSGLGC-OH; disulfide 16-32), with 30.7%; and `CC[C@H](C)[C@@H]1NC(=O)[C@H](CCCNC(=N)N)NC(=O)[C@H](CC(=O)O)NC(=O)[C@H](CC(C)C)NC(=O)[C@@H]2CCCN2C(=O)[C@H](CC(C)C)NC(=O)CNC(=O)[C@H](Cc2ccccc2)NC(=O)[C@@H](NC(=O)CNC(=O)[C@H](CO)NC(=O)[C@H](CO)NC(=O)[C@H](CC(C)C)NC(=O)CNC(=O)[C@H](CCCCN)NC(=O)[C@H](CCCCN)NC(=O)[C@H](CCC(N)=O)NC(=O)[C@H](C)NC(=O)CNC(=O)[C@H](CCCCN)NC(=O)[C@H](Cc2ccc(O)cc2)NC(=O)CNC(=O)CNC(=O)CNC(=O)CC[C@H](NC(=O)CC[C@H](NC(=O)CC[C@H](NC(=O)CC[C@H](NC(=O)CCCCCCCCCCCCCCCCC(=O)O)C(=O)O)C(=O)O)C(=O)O)C(=O)O)CSSC[C@@H](C(=O)O)NC(=O)CNC(=O)[C@H](CC(C)C)NC(=O)CNC(=O)[C@H](CO)NC(=O)[C@H](CC(C)C)NC(=O)[C@H](CO)NC(=O)CNC1=O` [compound 1387] ({C18 diacid-γGlu-γGlu-γGlu-γGlu}-GGGYKGAQKKGLSSGCFGLPLDRIGSLSGLGC-OH; disulfide 16-32; C-terminus assumed), with 20.6%.
Then `CC[C@H](C)[C@@H]1NC(=O)[C@H](CCCNC(=N)N)NC(=O)[C@H](CC(=O)O)NC(=O)[C@H](CC(C)C)NC(=O)[C@@H]2CCCN2C(=O)[C@H](CC(C)C)NC(=O)CNC(=O)[C@H](Cc2ccccc2)NC(=O)[C@@H](NC(=O)CNC(=O)[C@H](CCCCN)NC(=O)[C@H](CO)NC(=O)[C@H](CC(C)C)NC(=O)CNC(=O)[C@H](CCCCN)NC(=O)[C@H](CCCCN)NC(=O)[C@H](CCC(N)=O)NC(=O)[C@H](C)NC(=O)CNC(=O)[C@H](CCCCN)NC(=O)[C@H](Cc2ccc(O)cc2)NC(=O)CNC(=O)CNC(=O)CNC(=O)CC[C@H](NC(=O)CC[C@H](NC(=O)CC[C@H](NC(=O)CC[C@H](NC(=O)CCCCCCCCCCCCCCCCC(=O)O)C(=O)O)C(=O)O)C(=O)O)C(=O)O)CSSC[C@@H](C(=O)O)NC(=O)CNC(=O)[C@H](CC(C)C)NC(=O)CNC(=O)[C@H](CO)NC(=O)[C@H](CC(C)C)NC(=O)[C@H](CO)NC(=O)CNC1=O` [compound 1388] ({C18 diacid-γGlu-γGlu-γGlu-γGlu}-GGGYKGAQKKGLSKGCFGLPLDRIGSLSGLGC-OH; disulfide 16-32), with 23.5%; and `CC[C@H](C)[C@@H]1NC(=O)[C@H](CCCNC(=N)N)NC(=O)[C@H](CC(=O)O)NC(=O)[C@H](CC(C)C)NC(=O)[C@@H]2CCCN2C(=O)[C@H](CC(C)C)NC(=O)CNC(=O)[C@H](Cc2ccccc2)NC(=O)[C@@H](NC(=O)CNC(=O)[C@H](CO)NC(=O)[C@H](CO)NC(=O)[C@H](CC(C)C)NC(=O)CNC(=O)[C@H](CCCCN)NC(=O)[C@H](CCCCN)NC(=O)[C@H](CCC(N)=O)NC(=O)[C@H](C)NC(=O)CNC(=O)[C@H](CCC(=O)O)NC(=O)[C@H](Cc2ccc(O)cc2)NC(=O)[C@H](CCCCN)NC(=O)[C@H](CCCNC(=N)N)NC(=O)[C@H](C)NC(=O)[C@H](CCC(N)=O)NC(=O)[C@@H]2CCCN2C(=O)[C@H](Cc2c[nH]cn2)NC(=O)[C@H](CCC(=O)O)NC(=O)[C@H](CCC(N)=O)NC(=O)CC[C@H](NC(=O)CC[C@H](NC(=O)CC[C@H](NC(=O)CC[C@H](NC(=O)CCCCCCCCCCCCCCCCC(=O)O)C(=O)O)C(=O)O)C(=O)O)C(=O)O)CSSC[C@@H](C(=O)O)NC(=O)CNC(=O)[C@H](CC(C)C)NC(=O)CNC(=O)[C@H](CO)NC(=O)[C@H](CC(C)C)NC(=O)[C@H](CO)NC(=O)CNC1=O` [compound 1390] ({C18 diacid-γGlu-γGlu-γGlu-γGlu}-QEHPQARKYEGAQKKGLSSGCFGLPLDRIGSLSGLGC-OH; disulfide 21-37; C-terminus assumed), with 84.6%; and `CC[C@H](C)[C@@H]1NC(=O)[C@H](CCCNC(=N)N)NC(=O)[C@H](CC(=O)O)NC(=O)[C@H](CC(C)C)NC(=O)[C@@H]2CCCN2C(=O)[C@H](CC(C)C)NC(=O)CNC(=O)[C@H](Cc2ccccc2)NC(=O)[C@@H](NC(=O)CNC(=O)[C@H](CCCCN)NC(=O)[C@H](CO)NC(=O)CNC(=O)CNC(=O)[C@H](CCCCN)NC(=O)[C@H](CCCCN)NC(=O)[C@H](CCC(N)=O)NC(=O)[C@H](C)NC(=O)CNC(=O)[C@H](CCC(=O)O)NC(=O)[C@H](Cc2ccc(O)cc2)NC(=O)COCCOCCNC(=O)COCCOCCNC(=O)COCCOCCNC(=O)COCCOCCNC(=O)CC[C@H](NC(=O)CCCCCCCCCCCCCCCCC(=O)O)C(=O)O)CSSC[C@@H](C(=O)O)NC(=O)CNC(=O)[C@H](CC(C)C)NC(=O)CNC(=O)[C@H](CO)NC(=O)[C@H](CC(C)C)NC(=O)[C@H](CO)NC(=O)CNC1=O` [compound 1391] ({C18 diacid-γGlu-AEEA-AEEA-AEEA-AEEA}-YEGAQKKGGSKGCFGLPLDRIGSLSGLGC-OH; disulfide 13-29), with 37.9%.
Then `CC[C@H](C)[C@@H]1NC(=O)[C@H](CCCNC(=N)N)NC(=O)[C@H](CC(=O)O)NC(=O)[C@H](CC(C)C)NC(=O)[C@@H]2CCCN2C(=O)[C@H](CC(C)C)NC(=O)CNC(=O)[C@H](Cc2ccccc2)NC(=O)[C@@H](NC(=O)CNC(=O)[C@H](CCC(N)=O)NC(=O)[C@H](CO)NC(=O)[C@H](CC(C)C)NC(=O)CNC(=O)[C@H](CCCCN)NC(=O)[C@H](CCCCN)NC(=O)[C@H](CCC(N)=O)NC(=O)[C@H](C)NC(=O)CNC(=O)[C@H](CCC(=O)O)NC(=O)[C@H](Cc2ccc(O)cc2)NC(=O)COCCOCCNC(=O)COCCOCCNC(=O)COCCOCCNC(=O)COCCOCCNC(=O)CC[C@H](NC(=O)CCCCCCCCCCCCCCCCC(=O)O)C(=O)O)CSSC[C@@H](C(=O)O)NC(=O)CNC(=O)[C@H](CC(C)C)NC(=O)CNC(=O)[C@H](CO)NC(=O)[C@H](CC(C)C)NC(=O)[C@H](CO)NC(=O)CNC1=O` [compound 1393] ({C18 diacid-γGlu-AEEA-AEEA-AEEA-AEEA}-YEGAQKKGLSQGCFGLPLDRIGSLSGLGC-OH; disulfide 13-29), with 27.8%.
